Laboratory results taken from US11542530B2, “Method for increasing efficiency of homologous recombination-based gene editing in plant” (INDUSTRY-ACADEMIC COOPERATION FOUNDATION GYEONGSANG …, priority 2018, dated 2023).
Like-named read-outs stand apart in the source and are kept apart here.

Key:
RAD51 = experiment: HDR efficiency after treatment with RS-1; format: cell-based; settings: RS-1 as activator of RAD51
From the text: As a method which can be used either simultaneously or separately from the approaching method of above VI, there is a method of activating HDR pathway-regulating proteins by using chemical factors.

recombinase RAD51 = settings: mouse, reported; cited from earlier work
mammalian ligase IV [1] = settings: mouse, reported; cited from earlier work
ligase IV = settings: reported, background art; cited from earlier work
[2] = test system: ligase IV of the NHEJ pathway; experiment: HDR efficiency after treatment with NHEJ inhibitor SCR7 pyrazine, tomato cotyledons with pTC217 / pTC147; format: cell-based; settings: for Editing efficiency: total purple spots (pTC217)/total purple spots (pTC147)×100 / Editing efficiency / Purple spot/cotyledon (Avg.) / Purple spots (Total): 21 dpi
From the text: In the present invention, a method of increasing the HDR efficiency according to blocking of the NHEJ pathway by using Scr7 pyrazine chemical compound, which is an inhibitor of ligase IV of the NHEJ pathway in competitive relationship with the HDR pathway, was employed. As a result, when Scr7 pyrazine is used, the HDR efficiency had increased by 4 times compared to the comparative control group.
In order to measure the HDR frequency of Cas9, 21 days after the Agrobacterium infection, purple spots were counted from the cotyledon which has been infected with pTC217 (BeYDV with Cas9/gRNA1b) virus replicon and also from the cotyledon which has been transformed with pTC147 (35S:ANT1 T-DNA) control vector. By dividing the total number of purple spots that has been counted from callus generated with pTC217 by the total number of purple spots that has been counted from callus generated with pTC147, the HDR frequency rate was estimated.
DNA repair is mostly achieved by NHEJ pathway, and HDR-based repair occurs very limitedly. According to previous studies made on mammals, it was reported that HDR efficiency can be increased by blocking the NHEJ pathway. It is reported that SCR7 pyrazine, which is an inhibitor of mammalian ligase IV, can increase HDR as much as about 19 times in mouse, or 5 times in human cell line. […] However, no report has been made regarding the influence of SCR7 pyrazine on plant HDR. Accordingly, the effect of a treatment with different cultivation period (0, 1, 2 or 3 days) or different SCR7 pyrazine concentration (0, 1, 10 μM) was examined by the inventors of the present invention by using Cas9 structure pTC217 (BeYDV having Cas9/gRNA1b).
[Editing efficiency: total purple spots (pTC217)/total purple spots (pTC147)×100]

mammalian ligase IV [3] = settings: human cell line, reported; cited from earlier work
[4] = Table 13 (Change 1), pTC147 (T-DNA), SCR7 1 μM, 1 day, cv. Hong-Kwang, DD→16L/8D, 28° C.
[5] = Table 13 (Change 1), pTC147 (T-DNA), SCR7 1 μM, 2 days, cv. Hong-Kwang, DD→16L/8D, 28° C.
[6] = Table 13 (Change 1), pTC147 (T-DNA), SCR7 1 μM, 3 days, cv. Hong-Kwang, DD→16L/8D, 28° C.
[7] = Table 13 (Change 1), pTC147 (T-DNA), SCR7 10 μM, 1 day, cv. Hong-Kwang, DD→16L/8D, 28° C.
[8] = Table 13 (Change 1), pTC147 (T-DNA), SCR7 10 μM, 2 days, cv. Hong-Kwang, DD→16L/8D, 28° C.
[9] = Table 13 (Change 1), pTC147 (T-DNA), SCR7 10 μM, 3 days, cv. Hong-Kwang, DD→16L/8D, 28° C.
[10] = Table 13 (Change 1), pTC217, SCR7 1 μM, 1 day, cv. Hong-Kwang, DD→16L/8D, 28° C.
[11] = Table 13 (Change 1), pTC217, SCR7 1 μM, 2 days, cv. Hong-Kwang, DD→16L/8D, 28° C.
[12] = Table 13 (Change 1), pTC217, SCR7 1 μM, 3 days, cv. Hong-Kwang, DD→16L/8D, 28° C.
[13] = Table 13 (Change 1), pTC217, SCR7 10 μM, 1 day, cv. Hong-Kwang, DD→16L/8D, 28° C.
[14] = Table 13 (Change 1), pTC217, SCR7 10 μM, 2 days, cv. Hong-Kwang, DD→16L/8D, 28° C.
[15] = Table 13 (Change 1), pTC217, SCR7 10 μM, 3 days, cv. Hong-Kwang, DD→16L/8D, 28° C.
[16] = Table 14 (Change 2), pTC147 (T-DNA), SCR7 1 μM, 1 day, cv. Hong-Kwang, DD→16L/8D, 28° C.
[17] = Table 14 (Change 2), pTC147 (T-DNA), SCR7 1 μM, 2 days, cv. Hong-Kwang, DD→16L/8D, 28° C.
[18] = Table 14 (Change 2), pTC147 (T-DNA), SCR7 1 μM, 3 days, cv. Hong-Kwang, DD→16L/8D, 28° C.
[19] = Table 14 (Change 2), pTC147 (T-DNA), SCR7 10 μM, 1 day, cv. Hong-Kwang, DD→16L/8D, 28° C.
[20] = Table 14 (Change 2), pTC147 (T-DNA), SCR7 10 μM, 2 days, cv. Hong-Kwang, DD→16L/8D, 28° C.
[21] = Table 14 (Change 2), pTC147 (T-DNA), SCR7 10 μM, 3 days, cv. Hong-Kwang, DD→16L/8D, 28° C.
[22] = Table 14 (Change 2), pTC217, SCR7 1 μM, 1 day, cv. Hong-Kwang, DD→16L/8D, 28° C.
[23] = Table 14 (Change 2), pTC217, SCR7 1 μM, 2 days, cv. Hong-Kwang, DD→16L/8D, 28° C.
[24] = Table 14 (Change 2), pTC217, SCR7 1 μM, 3 days, cv. Hong-Kwang, DD→16L/8D, 28° C.
[25] = Table 14 (Change 2), pTC217, SCR7 10 μM, 1 day, cv. Hong-Kwang, DD→16L/8D, 28° C.
[26] = Table 14 (Change 2), pTC217, SCR7 10 μM, 2 days, cv. Hong-Kwang, DD→16L/8D, 28° C.
[27] = Table 14 (Change 2), pTC217, SCR7 10 μM, 3 days, cv. Hong-Kwang, DD→16L/8D, 28° C.
[28] = pTC147 (T-DNA), SCR7 1 μM, cv. Tom-Heart, 16L/8D, 25° C.
[29] = pTC147 (T-DNA), SCR7 10 μM, cv. Tom-Heart, 16L/8D, 25° C.
[30] = pTC217, SCR7 1 μM, cv. Tom-Heart, 16L/8D, 25° C.
[31] = pTC217, SCR7 10 μM, cv. Tom-Heart, 16L/8D, 25° C.

O=C(Nc1ccc(Br)cc1)c1ccc(Br)c(S(=O)(=O)NCc2ccccc2)c1 [RS-1, RAD51-stimulatory compound 1]
increase of HDR efficiency (RAD51): approximately 3 times | effect on HDR efficiency (recombinase RAD51): can increase the HDR efficiency in mouse

O=c1[nH]c(=S)[nH]c2nc(-c3ccccc3)c(-c3ccccc3)nc12 [SCR7, 2,3-dihydro-6,7-diphenyl-2-thioxo-4 (1H)-pteridinone]
increase of HDR (mammalian ligase IV [1]): about 19 times | increase of HDR (ligase IV): 2 to 19 times | Editing efficiency: total purple spots (pTC217)/total purple spots (pTC147)×100 ([2]; SCR7 1 μM, cv. Tom-Heart, 16L/8D, 25° C.): 4.5 | Editing efficiency: total purple spots (pTC217)/total purple spots (pTC147)×100 ([2]; SCR7 10 μM, cv. Tom-Heart, 16L/8D, 25° C.): 11.9 | Editing efficiency ([2]; Table 13 (Change 1), SCR7 1 μM, 1 day, cv. Hong-Kwang, DD→16L/8D, 28° C.): 1.89 | Editing efficiency ([2]; Table 13 (Change 1), SCR7 1 μM, 2 days, cv. Hong-Kwang, DD→16L/8D, 28° C.): 3.39 | Editing efficiency ([2]; Table 13 (Change 1), SCR7 1 μM, 3 days, cv. Hong-Kwang, DD→16L/8D, 28° C.): 7.74 | Editing efficiency ([2]; Table 13 (Change 1), SCR7 10 μM, 1 day, cv. Hong-Kwang, DD→16L/8D, 28° C.): 3.41 | Editing efficiency ([2]; Table 13 (Change 1), SCR7 10 μM, 2 days, cv. Hong-Kwang, DD→16L/8D, 28° C.): 9.27 | Editing efficiency ([2]; Table 13 (Change 1), SCR7 10 μM, 3 days, cv. Hong-Kwang, DD→16L/8D, 28° C.): 22.93 | Purple spot/cotyledon (Avg.) [2, 4]: 28.7 | Purple spots (Total) [2, 4]: 1005 | Purple spot/cotyledon (Avg.) [2, 5]: 26.9 | Purple spots (Total) [2, 5]: 942 | Purple spot/cotyledon (Avg.) [2, 6]: 23.2 | Purple spots (Total) [2, 6]: 813 | Purple spot/cotyledon (Avg.) [2, 7]: 20.1 | Purple spots (Total) [2, 7]: 703 | Purple spot/cotyledon (Avg.) [2, 8]: 18.8 | Purple spots (Total) [2, 8]: 658 | Purple spot/cotyledon (Avg.) [2, 9]: 14.2 | Purple spots (Total) [2, 9]: 497 | Purple spot/cotyledon (Avg.) [2, 10]: 0.55 | Purple spots (Total) [2, 10]: 19 | Purple spot/cotyledon (Avg.) [2, 11]: 0.93 | Purple spots (Total) [2, 11]: 32 | Purple spot/cotyledon (Avg.) [2, 12]: 1.8 | Purple spots (Total) [2, 12]: 63 | Purple spot/cotyledon (Avg.) [2, 13]: 0.68 | Purple spots (Total) [2, 13]: 24 | Purple spot/cotyledon (Avg.) [2, 14]: 1.75 | Purple spots (Total) [2, 14]: 61 | Purple spot/cotyledon (Avg.) [2, 15]: 3.26 | Purple spots (Total) [2, 15]: 114 | Editing efficiency ([2]; Table 14 (Change 2), SCR7 1 μM, 1 day, cv. Hong-Kwang, DD→16L/8D, 28° C.): 7.45 | Editing efficiency ([2]; Table 14 (Change 2), SCR7 1 μM, 2 days, cv. Hong-Kwang, DD→16L/8D, 28° C.): 7.17 | Editing efficiency ([2]; Table 14 (Change 2), SCR7 1 μM, 3 days, cv. Hong-Kwang, DD→16L/8D, 28° C.): 7.54 | Editing efficiency ([2]; Table 14 (Change 2), SCR7 10 μM, 1 day, cv. Hong-Kwang, DD→16L/8D, 28° C.): 11.34 | Editing efficiency ([2]; Table 14 (Change 2), SCR7 10 μM, 2 days, cv. Hong-Kwang, DD→16L/8D, 28° C.): 13.52 | Editing efficiency ([2]; Table 14 (Change 2), SCR7 10 μM, 3 days, cv. Hong-Kwang, DD→16L/8D, 28° C.): 15.15 | Purple spot/cotyledon (Avg.) [2, 16]: 26.0 | Purple spots (Total) [2, 16]: 912 | Purple spot/cotyledon (Avg.) [2, 17]: 17.9 | Purple spots (Total) [2, 17]: 627 | Purple spot/cotyledon (Avg.) [2, 18]: 18.9 | Purple spots (Total) [2, 18]: 663 | Purple spot/cotyledon (Avg.) [2, 19]: 22.9 | Purple spots (Total) [2, 19]: 802 | Purple spot/cotyledon (Avg.) [2, 20]: 21.5 | Purple spots (Total) [2, 20]: 754 | Purple spot/cotyledon (Avg.) [2, 21]: 18.8 | Purple spots (Total) [2, 21]: 660 | Purple spot/cotyledon (Avg.) [2, 22]: 1.96 | Purple spots (Total) [2, 22]: 68 | Purple spot/cotyledon (Avg.) [2, 23]: 1.29 | Purple spots (Total) [2, 23]: 45 | Purple spot/cotyledon (Avg.) [2, 24]: 1.44 | Purple spots (Total) [2, 24]: 50 | Purple spot/cotyledon (Avg.) [2, 25]: 2.60 | Purple spots (Total) [2, 25]: 91 | Purple spot/cotyledon (Avg.) [2, 26]: 2.91 | Purple spots (Total) [2, 26]: 102 | Purple spot/cotyledon (Avg.) [2, 27]: 2.85 | Purple spots (Total) [2, 27]: 100 | increase of HDR efficiency ([2]; compared to the comparative control group): 4 times | HDR frequency, dependence on treatment ([2]; cultivation period 0, 1, 2 or 3 days, 0, 1, 10 μM, pTC217): HDR frequency increases in accordance with an increase in the treatment time (period) and concentration | Purple spot/cotyledon (Avg.) [2, 28]: 22.2 | Purple spots (Total) [2, 28]: 1154 | Purple spot/cotyledon (Avg.) [2, 29]: 21.8 | Purple spots (Total) [2, 29]: 1137 | Purple spot/cotyledon (Avg.) [2, 30]: 1 | Purple spots (Total) [2, 30]: 52 | Purple spot/cotyledon (Avg.) [2, 31]: 2.61 | Purple spots (Total) [2, 31]: 136 | increase of HDR (mammalian ligase IV [3]): ~5 times
